Results: patent US10363239B2, “Method for inhibiting growth of cancer cells” (Pain Therapeutics, Inc., priority 2013, dated 2019)

How the values were obtained:
[1] = test system: pS2448mTOR, pS473Akt, pY/pT-ERK2 in glioblastoma cells; test: Activated (phosphorylated) mTOR, Akt and ERK2 levels (immunoprecipitation, Western blotting); format: cell-based, human; conditions: 0.1-5 nM; 4 days
Description: FIG. 10A through FIG. 10C illustrate the effect of contact with Compound C0105 on the levels of activated (phosphorylated) mTOR (pS^2448mTOR), Akt (pS^473Akt) and ERK2 (pY/pT-ERK2) in glioblastoma cells. Cells were treated with vehicle and 0.1-5 nM C0105 for 4 days. Cells were washed, solubilized and the resultant cell lysate was immunoprecipitated with anti-mTOR, -Akt or -ERK2. The levels of pS^2448mTOR, pS^473Akt, pY/pTERK2 in the respective anti-mTOR, -Akt, and -ERK2 immunoprecipitates were determined by Western blotting. The density of protein bands was measured by densitometric scanning. […] N=4. *p<0.01 compared to vehicle (open bars). […]
The cell lysates were diluted 5-fold with immunoprecipitation buffer and immunoprecipitated with anti-FLNA, -Akt, -mTOR and -ERK2 as described previously [Talbot et al., J Clin Inv 122(4):1-23 (2012); Wang et al., J Neurosci 32(29):9773-9784 (2012)]. The levels of FLNA linkages, activated phosphorylated Akt (pS^473 and pT^308), phosphorylated mTOR (pS^2448) and phosphorylated ERK2 (pY/pT) were determined in anti-FLNA, -Akt, -mTOR and -ERK2 immunoprecipitates by Western blotting with appropriate antibodies directed against PTEN, PP2A, K-RAS, ras-GAP (FLNA linkages), pS^473Akt, pT^308Akt, pS^2448mTOR and pY/pT ERK2 (activation of Akt, mTOR and ERK2).

[2] = test system: breast cancer HTB-22 cells; test: Cell proliferation by cell-cycling markers Ki67 and PCNA (Western blots); format: cell-based, human; conditions: 0.1-5 nM; 4 days
Description: The effect of contact with Compound C0105 on cell proliferation was determined by the levels of cell-cycling markers: Ki67 and PCNA using Western blots in HTB-22 and control human mammary epithelial cells (HMECs). Cells treated with vehicle and 0.1-5 nM Compound C0105 for 4 days were collected, washed and solubilized. The resultant cell lysates were size-fractionated on SDS-PAGE and Western blotting to determine the levels of Ki67, PCNA and actin (loading control). The protein bands were quantified using densitometric scanning.
The effect of C0105 on cell proliferation was determined by the levels of cell-cycling markers Ki67 and PCNA using Western blots in HTB-22 and control HMECs. Cells contacted with vehicle and 0.1-5 nM Compound C0105 for 4 days were collected, washed and solubilized. […] The protein bands were quantified using densitometric scanning. […]
To study the effect of Compound C0105 on PI3K activity, the cancer and primary normal cells were cultured to approximately 60-70% confluency, serum deprived for 4 hours, briefly washed with PBS and treated with vehicle or 0.1, 0.5, 1 or 5 nM Compound C0105 for 24 hours with in 0.1% FBS-containing culture medium. […] The cell pellets were sonicated in ice-cold immunoprecipitation buffer and protein concentrations measured by the Bradford method. […]

CN1CCC2(CC1)NCC(=O)N2Cc1ccccc1 [Compound C0105]
mTOR, Akt and ERK activation (phosphorylated mTOR, Akt and ERK) [1]: robustly reduces mTOR, Akt and ERK activation
Cell proliferation (Ki67 and PCNA levels) [2]: reduces cell proliferation
